In patent publication US10596223B2, “JNK inhibitor molecules for treatment of various diseases” (Xigen Inflammation Ltd., priority 2011, dated 2020):
“Also recorded” adds a separate entry of the source. Square brackets hold non-standard residues; d marks the D form. Peptide text beside a SMILES is read from it.

Tests used:
[1] = tested on: Primary Rat Whole Blood Cells; experiment: Cytokine release in rat whole blood (LPS or PMA+ionomycin, 4 h); format: cell-based; details: 10 μM inhibitor, three activator concentrations
Protocol: Given are the results for the control, 1 μM of SEQ ID NO: 172, 3 μM of SEQ ID NO: 172, and 10 μM of SEQ ID NO: 172 at different levels of LPS (ng/ml).
FIG. 17 Dose dependent inhibition of IL-2 release in rat whole blood stimulated with PMA+ionomycin. JNK inhibitor with SEQ ID NO: 172 was added at three different concentrations, namely 1, 3 and 10 μM 1 h before stimulation with PMA+ionomycin. Three doses of activators were added (25/500 ng/mL, 50/750 ng/mL and 50/1000 ng/mL) for 4 h. IL-2 release was assessed in supernatant.
Whole blood is collected from anesthetized rat or human healthy volunteers using a venipuncture connected to a pre-labeled vacuum tube containing sodium citrate. Tubes are gently mixed by inversion 7-8 times; and are then kept at RT until stimulation. JNK inhibitor of SEQ ID NO: 172_is prepared […] concentrated in PBS, and 30 μl/well of mix is added into 96-well plate. Whole blood is diluted by 1:2 in PBS and 120 μl of diluted blood is added in each well where either PBS alone or JNK inhibitor of SEQ ID NO: 172 has been previously added. Whole blood is incubated at 37° C.; 85 rpm (Stuart Orbital incubator S1500) for 60 min. […] Cytokine (IL-6, IL-2, IFNγ and TNFα) were then measured using standard Elisa kits (e.g. from R&D Systems: DuoSet Elisas; or from BD Biosciences: BD Opteia Set Elisa). Results are expressed as pg/ml of supernatant of the measured cytokine. […]

[2] = Stability (half-life) in human serum, intact peptide by UPLC-MS; format: in vitro ADME; details: human serum (50% in FIG. 5; 10 and 50% in PBS), 0.1 mM peptide
Protocol: FIG. 5: Stability of JNK inhibitors with SEQ ID NOs: 172, 196 and 197 in 50% human serum. The JNK inhibitor with SEQ ID NO: 196 was totally degraded into amino acids residues within 6 hours (A). The JNK inhibitor with SEQ ID NO: 172 was completely degraded only after 14 days (B). The JNK inhibitor with SEQ ID NO: 197 was stable at least up to 30 days (B).
The JNK inhibitors with the sequence of SEQ ID NOs: 196, 197, and 172 (0.1 mM final concentration) were digested in human serum (10 and 50% in PBS 1×). The experiment was performed as described by Tugyi et al. (Proc Natl Acad Sci USA, 2005, 413-418). The remaining intact peptide was quantified by UPLC-MS. Stability was assessed for SEQ ID NOs: 196, 197, and 172 identically but in two separate assays. While the JNK inhibitor with SEQ ID NO: 196 was totally degraded into amino acids residues within 6 hours, the JNK inhibitor with SEQ ID NO: 172 was completely degraded only after 14 days. The JNK inhibitor with SEQ ID NO: 197 was still stable after 30 days.

[3] = tested on: scopolamine-induced dry eye in mice; experiment: Scopolamine-induced model of dry eye (TBUT, PRTT, histopathology); format: in vivo, mouse; details: for histological scores of the cornea compared with cyclosporine group: Day 22
Protocol: The objective of this study was to assess the effects of two different compounds, the all-D-retro-inverso JNK-inhibitor (poly-)peptide of SEQ ID NO: 197 and the JNK inhibitor (poly-)peptide of SEQ ID NO: 172, at three dose levels in a mouse model of scopolamine-induced dry eye.
The peptides of SEQ ID NO: 197 and SEQ ID NO: 172 were tested for efficacy in this murine model of dry eye. The peptides were both tested at a low, medium and a high dose. […] The vehicle, which also served as the negative control, was 0.9% Sodium Chloride for Injection USP.
The study consisted of a total of 9 groups of female C57BL/6 mice, comprising 8 groups of 12 mice each and an additional group of 4 mice. Bilateral short-term dry eye was induced by a combination of scopolamine hydrobromide (Sigma-Aldrich Corp., St. Louis, Mo.) injection (subcutaneous (SC), four times daily, 0.5 mg/dose, Days 0-21) and by exposing mice to the drying environment of constant air draft. […] Mice of Group 9 were maintained as un-induced, (no dry eye) untreated controls.
During the in-life (treatment) period, clinical observations were recorded once daily; slit-lamp examination (SLE) with corneal fluorescein staining, tear break-up time test (TBUT), and phenol red thread test (PRTT) were performed three times per week. Necropsies were performed on Day 22; eyes, eye lids, conjunctivae, and lacrimal glands were collected from both eyes of each animal. Tissues from the right eyes (oculus dexter, OD) were fixed and then evaluated microscopically. Tissues from the left eyes (oculus sinister; OS) were flash-frozen in liquid nitrogen and stored frozen at −80° C. for possible subsequent analyses.
Prior to the start of the study, the (poly-)peptides of SEQ ID NO: 172 and of SEQ ID NO: 197 were formulated in sterile saline (vehicle). Dosing solutions at each concentration were sterilized using 0.2-μm filters, aliquoted to multiple pre-labeled vials, and frozen at −20° C.
Prior to entry into the study, each animal underwent a SLE and indirect ophthalmic examination using topically-applied fluorescein. Ocular findings were recorded using the Draize scale ocular scoring. SLE and Draize scoring were repeated three times a week during the in-life period.
The TBUT test was conducted three times weekly by measuring the time elapsed in seconds between a complete blink after application of fluorescein to the cornea and the appearance of the first random dry spot in the tear film. […] At least ninety seconds later, corneal epithelial damage was graded using a slit-lamp with a cobalt blue filter after another drop of 0.1% fluorescein was reapplied to the cornea; the cornea then was scored per the Draize ocular scale.
Tear production was measured three times a week in both eyes using PRTT test strips (Zone-Quick; Menicon, Nagoya, Japan). Prior to the first treatment of the day, a thread was applied to the lateral canthus of the conjunctival fornix of each eye for 30 seconds under slit-lamp biomicroscopy. Tear migration up the tread (i.e., the length of the wetted cotton thread) was measured using a millimeter scale.
At necropsy on Day 22, both eyes from each animal, including the globes, lacrimal glands, eyelids, and conjunctivae, were excised.

[4] = topical ocular TID, Days 1 to 21

CC(C)C[C@H](NC(=O)[C@H](CC(N)=O)NC(=O)[C@H](CC(C)C)NC(=O)[C@@H](NC(=O)[C@@H](C)NC(=O)[C@@H]1CCCN1C(=O)[C@H](CCCNC(=N)N)NC(=O)[C@@H](CCCCN)NC(=O)[C@@H]1CCCN1C(=O)[C@H](CCCNC(=N)N)NC(=O)[C@@H](CCCNC(=N)N)NC(=O)[C@H](CCCNC(=N)N)NC(=O)[C@H](CCCNC(=N)N)NC(=O)[C@H](CCC(N)=O)NC(=O)[C@@H](CCCNC(=N)N)NC(=O)[C@H](CCCNC(=N)N)NC(=O)[C@H](CCCCN)NC(=O)[C@H](CCCCN)NC(=O)[C@H](N)CCCNC(=N)N)[C@@H](C)O)C(=O)N[C@H](Cc1ccccc1)C(N)=O [SEQ ID NO: 172, rKKRrQRRrRPkRPaTLNLf] (H-[dR]KKR[dR]QRR[dR]RP[dK]RP[dA]TLNL[dF]-NH2; N-terminus assumed)
PMA-iono-induced IL-2 release [1]: did efficiently reduce PMA-iono-induced IL-2 release
completely degraded only after [2]: 14 days
histological scores of the cornea compared with cyclosporine group ([3]; 0.2% (mid dose)): the most effective, after cyclosporine
histological scores of the cornea compared with cyclosporine group ([3]; 0.6% (high dose)): the most effective, after cyclosporine
TBUT AUC compared with vehicle control (Kruskal-Wallis) ([3]; Day 7 to Day 21, SEQ ID NO: 172 0.05%, 0.2% and 0.6%, cyclosporine 0.05%): significant increases in the TBUT AUC
PRTT in the last test, aqueous tear production ([3]; Day 21, mid and high-dose (0.2%, 0.6%)): therapeutic effects similar to cyclosporine
PRTT, production of aqueous tears, low, mid and high dose (in words) [3, 4]: significantly more aqueous tears compared to vehicle-treated animals
TBUT means, low, mid and high dose (in words) [3, 4]: above the vehicle group; also recorded: dose-dependent increase in TBUT
